The source made the active and inactive calls. No cut-off for these calls is given here.
Tested on: Phytophthora capsici
Experiment: Antifungal activity against Phytophthora capsici assessed as fungal growth inhibition at 0.3 to 0.5 mM after 0.5 to 4.5 days
Format: functional, organism-based

| SMILES | growth inhibition (GI) |
| --- | --- |
| CCCCCCC(O)C(O)/C=C/C(O)CCCCCCC(=O)O (configuration not stated) | Active |
| CCCCCCC(O)C(O)/C=C/C(O)CCCCCCC(=O)OCC(O)CO (configuration not stated) | Active |
